Where a SMILES comes first, the peptide text is derived from it.

The target in the test is T1, EB1_191–260 (EB1c) (Homo sapiens, UniProt Q15691).
T1 construct: Human EB1 (Uniprot code Q15691), residues 191–260, was cloned into pOPINS vector; SUMO fusion protein (cleaved yes); 6xHis (cleaved yes); made in house; host or cells: E. coli BL21 Star (DE3)
T1 sequence (Q15691 191-260): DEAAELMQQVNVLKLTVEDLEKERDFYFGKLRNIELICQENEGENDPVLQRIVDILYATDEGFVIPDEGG
As to the kind of experiment: 1H-15N HSQC NMR ligand screening / titration (chemical shift perturbations, KD by curve fitting). It counts as binding. To be noted: NMR titration curves (Tyr247) fitted to two-state exchange model; 50 μM protein; read-out: estimated KD. From the text:
The ^1H and ^15N resonances were fully assigned using complementary pairs of triple resonance NMR spectra - CBCA(CO)NH/HNCACB for Cα and Cβ and HNCO/HN(CA)CO for CO connectivities.
Ligand-induced chemical shift perturbations (CSPs) in NH resonances on addition of the ligand were used as an indication of ligand binding and location of the binding site.
NMR spectra were collected on Bruker Avance III 600 and 800 MHz spectrometers equipped with CryoProbes. Spectra were processed with TopSpin (Bruker) and analysed using CCPNmr Analysis[35]. ^1H-^15N HSQC ligand screening ^1H-^15N- Heteronuclear Single Quantum Coherence (HSQC) experiments for ligand binding screening were performed using 0.05 mM ^15N-labelled EB1 in 20 mM phosphate pH 6.5, 50 mM NaCl, 0.5 mM TCEP, 0.02% (w/v) NaN3 in the absence or presence of ligands. To eliminate any small shifts induced by the small amounts of DMSO used to dissolve the compounds, DMSO concentration was kept constant in all experiments.
The dotted lines connect the values calculated for the best-fit curves at the titration points. Ligand concentration corresponds to the excess of ligand (e.g. 10-fold excess, 20-fold excess) to the protein concentration (50 μM). Binding constants were evaluated by fitting the experimental data to the […]
∆δ = ∆δ {([P] + [L] + K ) − [([P] + [L] + K )2 − 4[P] [L] ]1⁄2}⁄2[P] […]
In general, Kd refers to a measure of binding affinity in units of concentration. For the molecule `C[C@@H](Sc1nnnn1C1CCCC1)C(=O)NCc1ccco1` [1a], the Kd was 10 ± 3 mM.

`CC[C@H](C)[C@H](NC(=O)[C@H](CCCCN)NC(=O)[C@@H](N)CO)C(=O)N1CCC[C@H]1C(=O)O` [SKIP, reference compound] (H-SKIP-OH): the Kd was 14 ± 1.9 mM. Regarding `Cc1c(NC(=O)[C@@H](C)Sc2nnnn2C2CCCC2)c(=O)n(-c2ccccc2)n1C` [1d], the Kd is 6 ± 1 mM.

(Values after article PMC5686072, “Targeting SxIP-EB1 interaction: An integrated approach to the discovery of small molecule modulators of dynamic binding sites” (Scientific Reports, 2017).)
